This note sets out measurements from US11858956B2, “6-aza-nucleoside prodrugs as antiviral agents for treating virus infections” (Southern Research Institute, priority 2020, dated 2024).

Type in all cases: cell-based
One data set concerns H3N2 strain. The experiment in a line: Antiviral activity against Influenza H3N2 strain in MDCK cells. The conditions noted are these: Influenza A virus; for EC90: 4-6 hours pre-incubation with compound; for log reduction at 20 µM: at 20 μM concentration, 4-6 hours pre-incubation, read-out: H3N2 strain (MDCK cells) VTR (virus titer reduction). The method, then: (§1) The antiviral activity against Influenza viruses (H1N1 and H3N2 strains) evaluated in MDCK cells (4-6 hours pre-incubation with compound) shown in Table 5 below. VTR=Virus titer reduction in log at 20 μM concentration. NT: not tested, ND: not determined.

For a further data set, the system named is VEEV. The data set is described as follows: microbe, parasite or virus in culture. As to conditions: Venezuelan equine encephalitis virus, NHDF; for EC90: read-out: VEEV (NHDF cells) EC90; for log reduction at 10 µM: read-out: VEEV (NHDF cells) VTR (virus titer reduction).
For another data set, the system named is ZIKA. The data set is described as follows: Antiviral activity against ZIKA in HEK 293 cells. The conditions noted are these: Zika virus; for EC90: HEK293, read-out: ZIKA (HEK 293 cells) EC90; for log reduction at 10 µM: HEK293, read-out: ZIKA (HEK 293 cells) VTR (virus titer reduction).
The subject of a further data set is H1N1 strain. The data set is described as follows: Antiviral activity against Influenza H1N1 strain in MDCK cells. The conditions noted are these: Influenza A virus; for EC90: 4-6 hours pre-incubation with compound; for log reduction at 20 µM: at 20 μM concentration, 4-6 hours pre-incubation, read-out: H1N1 strain (MDCK cells) VTR (virus titer reduction). The method, then: as §1

Data set [1] can be described thus: Cytotoxicity (CC50) in MDCK cells. The conditions noted are these: dog, H1N1.
The next data set relates to WNV. The data set is described as follows: Antiviral activity against WNV in HEK293 cells. As to conditions: West Nile virus; for EC90: HEK293, read-out: WNV (HEK293 cells) EC90; for log reduction at 10 µM: HEK293, read-out: WNV (HEK293 cells) VTR (virus titer reduction).
Data set [2] in a line: Cytotoxicity (CC50) in NHDF cells. As to conditions: human, CHIKV. As for the experimental part: As used herein, “CC50” is intended to refer to the concentration of a substance (e.g., a compound or a drug) that is required for 50% reduction of cell viability. In one aspect, an CC50 can refer to the concentration of a substance that is required for 50% reduction (i.e., cytotoxicity) in vivo, as further defined elsewhere herein.
VTR=Virus titer reduction in log at 10 μM concentration. NT: not tested, ND: not determined.

Data set [3] can be described thus: Cytotoxicity (CC50) in HEK293 cells. The conditions noted are these: human, WNV.
In the next data set the test system is DENV. The experiment in a line: Antiviral activity against DENV in HEK293 cells. The conditions noted are these: Dengue virus; for EC90: HEK293, read-out: DENV (HEK293 cells) EC90; for log reduction at 10 µM: HEK293, read-out: DENV (HEK293 cells) VTR (virus titer reduction).
A further data set relates to CHIKV. The data set is described as follows: Antiviral activity against CHIKV in NHDF cells. As to conditions: Chikungunya virus; for EC90: read-out: CHIKV (NHDF cells) EC90; for log reduction at 10 µM: read-out: CHIKV (NHDF cells) VTR (virus titer reduction).

Usually EC90 stands for the concentration needed for an effect of 90%. A word on the CC50: it is the concentration at which the toxic effect on the cells reaches its halfway point.

On to `CCCCCCCCCCCCCCCCCC(=O)OC[C@H]1O[C@@H](n2ncc(=O)[nH]c2=O)[C@H](O)[C@@H]1O` [Compound 15, ((2r,3s,4r,5r)-5-(3,5-dioxo-4,5-dihydro-1,2,4-triazin-2(3H)-yl)-3,4-dihydroxytetrahydrofuran-2-yl)methyl stearate], for which the EC90 in the data set on H3N2 strain was 3290 nM; in the data set on VEEV, above 10000 nM; with ZIKA, 400 nM; with H1N1 strain, 750 nM; in the data set on WNV, 330 nM; with DENV, 160 nM. The EC90 in the data set with CHIKV turned out to be 310 nM. The results for the log reduction at 20 µM with H3N2 strain and in the data set with H1N1 strain were 3 and 3.3, respectively. Moreover, the log reduction at 10 µM in the data set with VEEV turned out to be 0; with ZIKA, 3; in the data set with WNV it was 4.5; with DENV, 3.6; in the data set on CHIKV, 2.6. Besides, the CC50 is above 20000 nM in data set [1], 7960 nM in [2] and 970 nM in data set [3].
`CCCC(CCC)C(=O)Nc1cnn([C@@H]2O[C@H](CO)[C@@H](O)[C@H]2O)c(=O)n1` [Compound 18, N-(2-((2r,3r,4s,5r)-3,4-dihydroxy-5-(hydroxymethyl)-tetrahydrofuran-2-yl)-3-oxo-2,3-dihydro-1,2,4-triazin-5-yl)-2-propylpentanamide]: the EC90 with H3N2 strain is 2780 nM; in the data set with VEEV, above 10000 nM; with ZIKA it was 100 nM; in the data set on H1N1 strain, 660 nM; with WNV, 400 nM; in the data set with DENV, 200 nM. The EC90 in the data set on CHIKV stood at 3200 nM. The log reduction at 20 µM came out at 3.4 in the data set with H3N2 strain and 3.3 in the data set on H1N1 strain. Also, the log reduction at 10 µM worked out at 0.13 in the data set with VEEV; 2.7 in the data set with ZIKA; 2.8 with WNV; 4 in the data set with DENV; 1.42 with CHIKV. In addition, the results for the CC50 in data set [1], in data set [2] and in data set [3] were 19600 nM, above 40000 nM and 30800 nM, respectively.
